Tests used:
[1] = target: T1, 3-hydroxy-3-methylglutaryl-coenzyme A reductase (Homo sapiens, UniProt P04035); design: species or system Escherichia coli;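 further: enzyme inhibition assay of HMG-CoA reductase using radiolabeled [14C]HMG-CoA as substrate; in other assays of this panel Not Active means under 50% inhibition at 10 µM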
T1 sequence (P04035 whole entry): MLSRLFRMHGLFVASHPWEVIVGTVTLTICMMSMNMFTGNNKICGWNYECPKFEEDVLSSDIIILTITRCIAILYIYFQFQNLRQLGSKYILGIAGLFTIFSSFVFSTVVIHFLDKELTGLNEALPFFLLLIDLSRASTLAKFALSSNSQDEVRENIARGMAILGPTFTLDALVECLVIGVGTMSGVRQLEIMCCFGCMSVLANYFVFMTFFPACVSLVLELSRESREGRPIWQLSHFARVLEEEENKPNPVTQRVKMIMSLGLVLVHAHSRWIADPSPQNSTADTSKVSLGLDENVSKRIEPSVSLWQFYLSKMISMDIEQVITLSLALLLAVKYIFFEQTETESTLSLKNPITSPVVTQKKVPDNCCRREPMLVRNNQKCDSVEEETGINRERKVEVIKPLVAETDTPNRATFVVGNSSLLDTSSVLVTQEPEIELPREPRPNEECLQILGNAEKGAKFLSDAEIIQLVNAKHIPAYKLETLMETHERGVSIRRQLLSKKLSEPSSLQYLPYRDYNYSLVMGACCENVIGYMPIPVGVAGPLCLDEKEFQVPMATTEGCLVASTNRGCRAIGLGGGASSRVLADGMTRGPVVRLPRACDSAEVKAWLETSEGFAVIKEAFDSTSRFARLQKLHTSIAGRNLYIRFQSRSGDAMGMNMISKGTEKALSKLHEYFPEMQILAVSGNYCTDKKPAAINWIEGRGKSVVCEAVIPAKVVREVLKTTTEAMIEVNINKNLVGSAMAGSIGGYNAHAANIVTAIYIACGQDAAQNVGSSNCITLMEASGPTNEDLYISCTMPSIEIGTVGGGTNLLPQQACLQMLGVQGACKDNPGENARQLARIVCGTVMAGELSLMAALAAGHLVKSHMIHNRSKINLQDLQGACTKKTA

[2] = target: Cytochrome P450 2C19 (Homo sapiens, UniProt P33261); conditions: bti-tn-5b1-4; further: in other assays of this panel Not Active means under 50% inhibition at 10 µM
[3] = target: T2, Amine oxidase [flavin-containing] A (Homo sapiens, UniProt P21397); test: DRUGMATRIX: Monoamine Oxidase MAO-A enzyme inhibition (substrate: Kynuramine); design: species or system BTI-TN-5B1-4; conditions: bti-tn-5b1-4; Not Active = under 50% inhibition at 10 µM
T2 sequence (P21397 whole entry): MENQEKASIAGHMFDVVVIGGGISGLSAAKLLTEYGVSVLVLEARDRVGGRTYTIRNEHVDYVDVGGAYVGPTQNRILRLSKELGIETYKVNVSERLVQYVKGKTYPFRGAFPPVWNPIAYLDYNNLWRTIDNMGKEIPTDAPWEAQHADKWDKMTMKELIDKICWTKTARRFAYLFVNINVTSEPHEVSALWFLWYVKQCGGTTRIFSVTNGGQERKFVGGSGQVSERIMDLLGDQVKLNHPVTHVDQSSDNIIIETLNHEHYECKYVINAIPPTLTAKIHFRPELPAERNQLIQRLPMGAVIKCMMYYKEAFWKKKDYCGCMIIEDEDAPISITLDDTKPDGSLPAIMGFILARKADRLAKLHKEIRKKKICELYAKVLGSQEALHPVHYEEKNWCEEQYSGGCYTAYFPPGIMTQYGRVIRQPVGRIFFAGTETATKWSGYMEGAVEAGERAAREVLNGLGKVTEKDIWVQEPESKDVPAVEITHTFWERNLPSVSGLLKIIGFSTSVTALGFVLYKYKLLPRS

[4] = target: Adenosine receptor A2a (Homo sapiens, UniProt P29274); test: DRUGMATRIX: Adenosine A2A radioligand binding (ligand: […]); format: cell membranes, HEK293, Membrane; conditions: hek293; Not Active = under 50% inhibition at 10 µM
[5] = target: T3, Muscarinic acetylcholine receptor M4 (Homo sapiens, UniProt P08173); format: cell membranes, CHO-K1, Membrane; conditions: for Ki: read-out: Ki; on all read-outs here: in other assays of this panel Not Active means under 50% inhibition at 10 µM
T3 sequence (P08173 whole entry): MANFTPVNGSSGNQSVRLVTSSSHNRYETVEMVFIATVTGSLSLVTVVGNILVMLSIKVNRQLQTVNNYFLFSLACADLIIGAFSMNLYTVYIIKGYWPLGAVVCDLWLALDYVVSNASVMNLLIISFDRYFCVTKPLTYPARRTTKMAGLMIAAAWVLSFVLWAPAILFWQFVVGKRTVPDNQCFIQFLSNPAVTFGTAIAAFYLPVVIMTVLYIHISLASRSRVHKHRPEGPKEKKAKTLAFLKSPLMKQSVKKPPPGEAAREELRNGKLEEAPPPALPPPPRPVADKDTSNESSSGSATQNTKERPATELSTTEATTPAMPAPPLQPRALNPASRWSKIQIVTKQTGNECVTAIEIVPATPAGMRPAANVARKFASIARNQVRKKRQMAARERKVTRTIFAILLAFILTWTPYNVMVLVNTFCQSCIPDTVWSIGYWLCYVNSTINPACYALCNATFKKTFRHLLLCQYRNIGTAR

[6] = target: Protein phosphatase 3 catalytic subunit alpha (Homo sapiens, UniProt Q08209); design: species or system Escherichia coli;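 further: inhibition of calcineurin (PP2B) enzyme activity, measured with DiFMUP as the substrate; in other assays of this panel Not Active means under 50% inhibition at 10 µM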

Chain of Cytochrome P450 2C19 (P33261 whole entry): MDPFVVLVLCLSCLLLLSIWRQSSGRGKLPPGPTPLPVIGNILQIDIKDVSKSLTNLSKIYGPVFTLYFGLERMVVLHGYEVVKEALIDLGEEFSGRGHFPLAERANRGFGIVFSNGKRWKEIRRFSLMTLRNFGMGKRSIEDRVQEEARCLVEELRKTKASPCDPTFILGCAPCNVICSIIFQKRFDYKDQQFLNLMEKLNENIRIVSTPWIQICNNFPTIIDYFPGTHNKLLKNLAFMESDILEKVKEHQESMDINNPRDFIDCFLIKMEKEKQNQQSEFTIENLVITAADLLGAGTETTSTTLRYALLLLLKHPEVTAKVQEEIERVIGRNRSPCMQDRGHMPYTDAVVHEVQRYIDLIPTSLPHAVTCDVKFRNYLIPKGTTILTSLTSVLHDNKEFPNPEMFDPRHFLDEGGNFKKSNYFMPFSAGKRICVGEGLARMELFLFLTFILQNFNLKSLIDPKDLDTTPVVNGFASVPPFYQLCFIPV
Chain of Adenosine receptor A2a (P29274 whole entry): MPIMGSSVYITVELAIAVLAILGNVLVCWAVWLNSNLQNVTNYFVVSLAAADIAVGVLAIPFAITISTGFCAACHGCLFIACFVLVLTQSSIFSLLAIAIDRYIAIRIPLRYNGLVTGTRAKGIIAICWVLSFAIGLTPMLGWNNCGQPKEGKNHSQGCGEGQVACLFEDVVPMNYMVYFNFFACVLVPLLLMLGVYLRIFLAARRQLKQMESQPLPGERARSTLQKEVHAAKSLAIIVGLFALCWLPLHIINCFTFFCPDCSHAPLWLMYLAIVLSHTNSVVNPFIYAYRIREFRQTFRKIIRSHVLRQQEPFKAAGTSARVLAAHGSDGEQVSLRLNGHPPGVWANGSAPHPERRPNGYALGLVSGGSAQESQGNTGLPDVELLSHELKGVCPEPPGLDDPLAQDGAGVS

Structure (SMILES)	IC50 [1]	IC50 [2]	Ki [2]	IC50 [3]	IC50 [4]	IC50 ([5]; cho-k1)	IC50 [6]	IC50 ([1]; read-out: IC50)	IC50 ([5]; read-out: IC50)	Ki [5]
CC[C@H](C)[C@H]1O[C@]2(C=C[C@@H]1C)C[C@@H]1C[C@@H](C/C=C(\C)[C@@H](O[C@H]3C[C@H](OC)[C@@H](O[C@H]4C[C@H](OC)[C@@H](O)[C@H](C)O4)[C@H](C)O3)[C@@H](C)/C=C/C=C3\CO[C@@H]4[C@H](O)C(C)=C[C@@H](C(=O)O1)[C@]34O)O2.CO[C@H]1C[C@H](O[C@H]2[C@H](C)O[C@@H](O[C@@H]3/C(C)=C/C[C@@H]4C[C@@H](C[C@]5(C=C[C@H](C)[C@@H](C(C)C)O5)O4)OC(=O)[C@@H]4C=C(C)[C@@H](O)[C@H]5OC/C(=C\C=C\[C@@H]3C)[C@]54O)C[C@@H]2OC)O[C@@H](C)[C@@H]1O [ABAMECTIN]	Not Active	Not Active	Not Active	Not Active	Not Active	Not Active	Not Active			
Cc1nnc2n1-c1ccc(Cl)cc1C(c1ccccc1)=NC2 [ALPRAZOLAM]	Not Active	Not Active	Not Active	Not Active	Not Active	Not Active	Not Active			
CCC1(CCC(C)C)C(=O)NC(=O)NC1=O [AMOBARBITAL]	Not Active	Not Active	Not Active	Not Active	Not Active	Not Active	Not Active			
CC1(C)S[C@@H]2[C@H](NC(=O)[C@H](N)c3ccccc3)C(=O)N2[C@H]1C(=O)O [AMPICILLIN]	Not Active	Not Active	Not Active	Not Active	Not Active	Not Active	Not Active			
COc1ccc(C2C(=O)c3ccccc3C2=O)cc1 [ANISINDIONE]	Not Active	Not Active	Not Active	Not Active	Not Active	Not Active	Not Active			
O=C1O[C@H]([C@@H](O)CO)C(O)=C1O [ASCORBIC ACID]	Not Active	Not Active	Not Active	Not Active	Not Active	Not Active	Not Active			
CC(C(=O)O)c1ccc2oc(-c3ccc(Cl)cc3)nc2c1 (centres undefined) [BENOXAPROFEN]	Not Active	Not Active	Not Active	Not Active	Not Active	Not Active	Not Active			
COc1ccc2cc3[n+](cc2c1OC)CCc1cc2c(cc1-3)OCO2.[Cl-] [BERBERINE CHLORIDE]	Not Active	Not Active	Not Active	Not Active	Not Active	Not Active	Not Active			
O=C(O)CCNC(=O)c1ccccc1 [BETAMIPRON]	Not Active	Not Active	Not Active	Not Active	Not Active	Not Active	Not Active			
CC(=O)Oc1ccc(C(c2ccc(OC(C)=O)cc2)c2ccccn2)cc1 [BISACODYL]	Not Active	Not Active	Not Active	Not Active	Not Active	Not Active	Not Active			
Cc1cc2c(OCC(CNC(C)(C)C)OC(=O)c3ccccc3)cccc2[nH]1 (centres undefined) [BOPINDOLOL]	Not Active	Not Active	Not Active	Not Active	Not Active	Not Active	Not Active			
Brc1c(NC2=NCCN2)ccc2nccnc12 [BRIMONIDINE]	Not Active	Not Active	Not Active	Not Active	Not Active	Not Active	Not Active			
CN(C)[C@@H]1C(O)=C(C(N)=O)C(=O)[C@@]2(O)C(O)=C3C(=O)c4c(O)ccc(Cl)c4[C@@](C)(O)[C@H]3C[C@@H]12 [CHLORTETRACYCLINE]	Not Active	Not Active	Not Active	Not Active	Not Active	Not Active	Not Active			
CN/C(=N\CCSCc1nc[nH]c1C)NC#N [CIMETIDINE]	Not Active	Not Active	Not Active	Not Active	Not Active	Not Active	Not Active			
COc1cc(N)c(Cl)cc1C(=O)NC1CCN(CCCOc2ccc(F)cc2)CC1OC (centres undefined) [CISAPRIDE]		Not Active	Not Active	Not Active	Not Active	Not Active	Not Active	3370 nM		
CCC(=O)O[C@]1(C(=O)CCl)[C@@H](C)C[C@H]2[C@@H]3CCC4=CC(=O)C=C[C@]4(C)[C@@]3(F)[C@@H](O)C[C@@]21C [CLOBETASOL PROPIONATE]	Not Active	Not Active	Not Active	Not Active	Not Active	Not Active	Not Active			
O=C1CN=C(c2ccccc2Cl)c2cc([N+](=O)[O-])ccc2N1 [CLONAZEPAM]	Not Active	Not Active	Not Active	Not Active	Not Active	Not Active	Not Active			
C[C@@H]1C[C@H]2[C@@H]3CCC4=CC(=O)C=C[C@]4(C)[C@@]3(F)[C@@H](O)C[C@]2(C)[C@H]1C(=O)CO [DESOXIMETASONE]	Not Active	Not Active	Not Active	Not Active	Not Active	Not Active	Not Active			
CN(C)CC[C@@H](c1ccc(Cl)cc1)c1ccccn1 [DEXCHLORPHENIRAMINE]	Not Active	Not Active	Not Active	Not Active	Not Active		Not Active		1980 nM	276 nM
C[C@@H]1CC[C@@]2(OC1)O[C@H]1[C@@H](O)[C@H]3[C@@H]4CC[C@H]5C[C@@H](O[C@@H]6O[C@H](CO)[C@H](O[C@@H]7O[C@H](CO)C(O)[C@H](O[C@@H]8OC[C@@H](O)[C@H](O)[C@H]8O)[C@H]7O[C@@H]7O[C@H](CO)[C@H](O)[C@H](O[C@@H]8O[C@H](CO)[C@@H](O)[C@H](O)[C@H]8O)[C@H]7O)[C@H](O)[C@H]6O)[C@H](O)C[C@]5(C)[C@H]4CC[C@]3(C)[C@H]1[C@@H]2C (some centres undefined) [DIGITONIN]	Not Active	Not Active	Not Active	Not Active	Not Active	Not Active	Not Active			
OC(CCCN1CCCCC1)(c1ccccc1)c1ccccc1 [DIPHENIDOL]	Not Active	Not Active	Not Active	Not Active	Not Active		Not Active		271 nM	38 nM

From ChEMBL document CHEMBL1909046, “DrugMatrix in vitro pharmacology data”
